The record followed here is US8637558B2 (Industry-Academic Cooperation Foundation, Chosun University, priority 2008, dated 2014).

The pIC50 is −log10 of the IC50, conventionally taken in molar units. Low readings indicate a high IC50, high ones a low IC50.

SMILES strings stand for the structures. pIC50: −log10 of the molar value.

15-PGDH, sequence (P15428 whole entry): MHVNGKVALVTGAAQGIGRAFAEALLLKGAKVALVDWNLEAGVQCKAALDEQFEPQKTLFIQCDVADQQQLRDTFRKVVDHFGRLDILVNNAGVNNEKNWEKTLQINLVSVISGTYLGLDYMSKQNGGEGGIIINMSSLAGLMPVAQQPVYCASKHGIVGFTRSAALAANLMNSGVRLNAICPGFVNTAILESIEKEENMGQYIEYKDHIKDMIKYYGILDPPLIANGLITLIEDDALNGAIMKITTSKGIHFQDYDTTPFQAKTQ

The experiment has as its target 15-PGDH (Homo sapiens (Human), UniProt P15428). Nature of the experiment: Assay for the activities of 15-PGDH inhibitors (formation of NADH at 340 nm). The class given is biochemical. The note with it: purified 15-PGDH enzyme, 21 μM PGE2, 0.25 mM NAD+, pH 7.5; concentration inhibiting 50% of 15-PGDH activity. As for the experimental part: <1-1> Expression and Purification of 15-PGDH
A 15-PGDH cDNA plasmid containing BamHI and EcoRI sites of the pGES-2T expression vector was used to transform Escherichia coli BL-21 lysS in accordance with the ordinarily used in the art. The transformed cells were grown in 500 mL LB medium containing 50 μg/mL ampicillin at 37° C. while being stirred at 220 rpm until the OD600 reached 0.6. Isopropyl β-D-thiogalactoside (1 mM) was added and the cells were allowed to grow for 12 hours at 25° C. Then, the pellets were harvested by centrifugation at 4000×g for 30 minutes at 4° C. The cell pallets were resuspended in 20 mL cell lysis buffer (1×PBS buffer (pH 7.4) containing 1 mM EDTA and 0.1 mM DTT) and sonicated (14×10 s at 4° C.). The disrupted cells were centrifuged at 4000×g for 20 minutes at 4° C. The supernatant was loaded slowly on a glutathione-sepharose 4B column, which was equilibrated at 4° C. with a cell lysis buffer (1×PBS buffer (pH 7.4) containing 1 mM EDTA and 0.1 mM DTT). The column was washed with the lysis buffer until OD280 reached below 0.005. Then, 15-PGDH was eluted from the glutathione-sepharose 4B column at room temperature for 5 minutes by using the elution buffer (50 mM Tris-HCl (pH 8.0) containing 10 mM reduced glutathione, 1 mM EDTA and 0.1 mM DTT). The concentration and the purity of the purified enzyme were determined by SDS-PAGE.
<1-2> Assay for the Activities of 15-PGDH Inhibitors
The absorbance of the reaction mixture was recorded at 340 nm so that the activities of the derivatives according to the present invention as 15-PGDH inhibitors were determined from a standard curve prepared from the absorbance of various concentrations of NADH at 340 nm.
Regarding `O=C1NC(=O)C(Cc2ccc(OCC3CCCCC3)c(Cl)c2)S1` (centres unmarked), the pIC50 was 6.28.

As for `O=C1NC(=O)C(Cc2ccc(OCC3CCCCC3)c(Cl)c2)S1` (single isomer, unassigned), the pIC50 was 6.90.

With `CC(C)OCCOc1ccc(/C=C2\SC(=O)NC2=O)cc1` [Derivative 1, 5-(4-(2-isopropoxyethoxy)benzylidene)thiazolidine-2,4-dione], the pIC50 was 6.02.

On to `O=C1NC(=O)/C(=C/c2ccc(OCCN3CCOCC3)cc2)S1` [Derivative 2, 5-(4-(2-morpholinoethoxy)benzylidene)thiazolidine-2,4-dione], for which the pIC50 is 6.29.

As for `O=C1NC(=O)/C(=C/c2ccc(OCCc3cccs3)cc2)S1` [Derivative 3, 5-(4-(2-(thiophen-2-yl)ethoxy)benzylidene)thiazolidine-2,4-dione], the pIC50 was 7.02.

Turning to `O=C1NC(=O)/C(=C/c2ccc(OCCc3ccsc3)cc2)S1` [Derivative 4, 5-(4-(2-(thiophen-3-yl)ethoxy)benzylidene)thiazolidine-2,4-dione], the pIC50 was 6.83.

As for `O=C1NC(=O)/C(=C/c2ccc(OCCN3CCS(=O)(=O)CC3)cc2)S1` [Derivative 5, 5-[4-(2-thiomorpholine-1,1-dioxideethoxy)benzylidene]thiazolidine-2,4-dione], the pIC50 is 5.86.

Compound `O=C1NC(=O)/C(=C/c2ccc(OCCc3ccccn3)cc2)S1` [Derivative 6, 5-(4-(2-(pyridin-2-yl)ethoxy)benzylidene)thiazolidine-2,4-dione] showed a pIC50 of 6.23.

`O=C1NC(=O)/C(=C/c2ccc(OCCNC3CCCCC3)cc2)S1` [Derivative 7, 5-(4-(2-(cyclohexylamino)ethoxy)benzylidene)thiazolidine-2,4-dione] gave a pIC50 of 5.58.

As for `COc1cc(/C=C2\SC(=O)NC2=O)ccc1OCCC1CCCCC1` [Derivative 8, 5-(4-(2-cyclohexylethoxy)-3-methoxybenzylidene)thiazolidine-2,4-dione], the pIC50 was 7.64.

For the compound `Cc1cc(/C=C2\SC(=O)NC2=O)ccc1OCCC1CCCCC1` [Derivative 9, 5-(4-(2-cyclohexylethoxy)-3-methylbenzylidene)thiazolidine-2,4-dione], the negative-log IC50 (pIC50) was 7.26.

In turn, `COc1cc(/C=C2\SC(=O)NC2=O)cc(OC)c1OCCC1CCCCC1` [Derivative 10, 5-(4-(2-cyclohexylethoxy)-3,5-dimethoxybenzylidene)thiazolidine-2,4-dione] showed a pIC50 of 7.02.

On to `O=C1NC(=O)/C(=C/c2ccc(OCCC3CCCCC3)c(Cl)c2)S1` [Derivative 11, 5-(3-chloro-4-(2-cyclohexylethoxy)benzylidene)thiazolidine-2,4-dione], for which the pIC50 was 8.14.

On to `O=C1NC(=O)/C(=C/c2ccc(OCCCC3CCCCC3)c([N+](=O)[O-])c2)S1` [Derivative 12, 5-(4-(3-cyclohexylpropoxy)-3-nitrobenzylidene)thiazolidine-2,4-dione], for which the pIC50 was 6.49.

For `O=C1NC(=S)/C(=C/c2ccc(OCCC3CCCCC3)cc2)S1` [Derivative 13, 5-(4-(2-cyclohexylethoxy)benzylidene)-4-thioxothiazolidin-2-one], the pIC50 was 6.16.

On to `O=C1NC(=O)/C(=C/c2ccc(OCCN3CCCCC3)cc2)S1` [Derivative 14, 5-(4-(2-(piperidin-1-yl)ethoxy)benzylidene)thiazolidine-2,4-dione], for which the pIC50 was 5.85.

Take `O=C1NC(=O)/C(=C/c2ccc(OCCC3CCCCC3)c(Br)c2)S1` [Derivative 15, 5-(3-bromo-4-(2-cyclohexylethoxy)benzylidene)thiazolidine-2,4-dione]: the pIC50 is 8.18.

In the case of `O=C1NC(=O)/C(=C/c2ccc(OCCC3CCCCC3)c(C(F)(F)F)c2)S1` [Derivative 16, 5-(4-(2-cyclohexylethoxy)-3-(trifluoromethyl)benzylidene)thiazolidine-2,4-dione], the pIC50 was 7.14.

As for `O=C1NC(=O)/C(=C/c2ccc(OCCC3CCCCC3)cc2Cl)S1` [Derivative 18, 5-(2-chloro-4-(2-cyclohexylethoxy)benzylidene)thiazolidine-2,4-dione], the pIC50 is 7.71.

Turning to `Cc1ncsc1CCOc1ccc(/C=C2\SC(=O)NC2=O)cc1` [Derivative 19, 5-(4-(2-(4-methylthiazol-5-yl)ethoxy)benzylidene)thiazolidine-2,4-dione], the pIC50 is 5.93.

The compound `O=C1NC(=O)/C(=C/c2ccc(OCCC3CCCCC3)c(F)c2)S1` [Derivative 20, 5-(4-(2-cyclohexylethoxy)-3-fluorobenzylidene)thiazolidine-2,4-dione] showed a pIC50 of 7.29.

For `O=C1NC(=O)/C(=C/c2ccc(OCCCN3CCS(=O)(=O)CC3)cc2)S1` [Derivative 21, 5-[4-(3-thiomorpholine-1,1-dioxidepropoxy)benzylidene]-thiazolidine-2,4-dione], the negative-log IC50 (pIC50) was 5.52.

For `O=C1NC(=O)/C(=C/c2ccc(OCc3cccs3)cc2)S1` [Derivative 22, 5-(4-(thiophen-2-ylmethoxy)benzylidene)thiazolidine-2,4-dione], the pIC50 was 6.60.

Regarding `O=C1NC(=O)/C(=C/c2ccc(OCc3ccsc3)cc2)S1` [Derivative 23, 5-(4-(thiophen-3-ylmethoxy)benzylidene)thiazolidine-2,4-dione], the pIC50 was 6.41.

`O=C1NC(=O)/C(=C/c2ccc(OCCC3CCCC3)cc2)S1` [Derivative 24, 5-(4-(2-cyclopentylethoxy)benzylidene)thiazolidine-2,4-dione] showed a pIC50 of 6.94.

Turning to `O=C1NC(=O)/C(=C/c2ccc(OCc3ccco3)cc2)S1` [Derivative 25, 5-(4-(furan-2-ylmethoxy)benzylidene)thiazolidine-2,4-dione], the pIC50 is 5.73.

For the compound `Cc1ccc(COc2ccc(/C=C3\SC(=O)NC3=O)cc2)cc1` [Derivative 27, 5-(4-(4-methylbenzyloxy)benzylidene)thiazolidine-2,4-dione], the pIC50 is 6.59.

In the case of `COc1ccc(COc2ccc(/C=C3\SC(=O)NC3=O)cc2)cc1` [Derivative 28, 5-(4-(4-methoxybenzyloxy)benzylidene)thiazolidine-2,4-dione], the pIC50 is 6.14.

As for `O=C1NC(=O)/C(=C/c2ccc(OCc3ccc4c(c3)OCO4)cc2)S1` [Derivative 29, 5-(4-(benzo[d][1,3]dioxol-5-ylmethoxy)benzylidene)thiazolidine-2,4-dione], the pIC50 was 6.51.

Turning to `O=C1NC(=O)/C(=C/c2ccc(OC3CCCCC3)c(Cl)c2)S1` [Derivative 30, 5-(3-chloro-4-(cyclohexyloxy)benzylidene)thiazolidine-2,4-dione], the pIC50 is 7.31.

In turn, `O=C1NC(=O)/C(=C/c2ccc(OCC3CCCCC3)c(Cl)c2)S1` [Derivative 31, 5-(3-chloro-4-(cyclohexylmethoxy)benzylidene)thiazolidine-2,4-dione] had a pIC50 of 7.57.

As for `O=C1NC(=O)/C(=C/c2ccc(OCCCC3CCCCC3)c(Cl)c2)S1` [Derivative 32, 5-(3-chloro-4-(3-cyclohexylpropoxy)benzylidene)thiazolidine-2,4-dione], the pIC50 was 7.99.

As for `O=C1NC(=O)/C(=C/c2ccc(OCCCCC3CCCCC3)c(Cl)c2)S1` [Derivative 33, 5-(3-chloro-4-(4-cyclohexylbutoxy)benzylidene)thiazolidine-2,4-dione], the pIC50 is 7.58.

Consider `O=C1NC(=O)/C(=C/c2cccc(OCCC3CCCCC3)c2Cl)S1` [Derivative 34, 5-(2-chloro-3-(2-cyclohexylethoxy)benzylidene)thiazolidine-2,4-dione], for which the pIC50 was 7.75.

`O=C1NC(=O)/C(=C/c2ccc(OCC3CCCC3)cc2)S1` [Derivative 35, 5-(4-(cyclopentylmethoxy)benzylidene)thiazolidine-2,4-dione] had a pIC50 of 7.37.

`O=C1NC(=O)/C(=C/c2ccc(OCc3ccc(CCl)cc3)cc2)S1` [Derivative 36, 5-(4-(4-(chloromethyl)benzyloxy)benzylidene)thiazolidine-2,4-dione] showed a pIC50 of 6.90.

As to `CC1CCC(COc2ccc(/C=C3\SC(=O)NC3=O)cc2)CC1` (centres unmarked) [Derivative 37, 5-(4-((4-methylcyclohexyl)methoxy)benzylidene)thiazolidine-2,4-dione], the pIC50 is 7.18.

In turn, `O=C1NC(=O)/C(=C/c2ccc(O)cc2)S1` [Derivative 39, 5-(4-hydroxybenzylidene)thiazolidine-2,4-dione] had a pIC50 of 5.00.

In the case of `COc1ccc(/C=C2\SC(=O)NC2=O)cc1` [Derivative 40, 5-(4-methoxybenzylidene)thiazolidine-2,4-dione], the pIC50 was 5.25.

In turn, `CCOc1ccc(/C=C2\SC(=O)NC2=O)cc1` [Derivative 41, 5-(4-ethoxybenzylidene)thiazolidine-2,4-dione] showed a pIC50 of 5.24.

The compound `O=C1NC(=O)/C(=C/c2ccc(OCC3CCCCC3)cc2)S1` [Derivative 42, 5-(4-(cyclohexylmethoxy)benzylidene)thiazolidine-2,4-dione] had a negative logarithm of the IC50 (pIC50) of 6.66.
